SMILES strings stand for the structures.

The source of these data is ChEMBL document CHEMBL4014265, “Crassins A-H, Diterpenoids from the Roots of Croton crassifolius” (J Nat Prod, 2017).

Assay [1] relates to HL-60. The experiment in a line: Cytotoxicity against human HL60 cells assessed as growth inhibition at 20 uM after 72 hrs by MTT assay relative to control. The format is functional. The note with it: HL-60, 72 h, read-out: GI.
The test system of assay [2] is A549. The experiment in a line: Cytotoxicity against human A549 cells assessed as growth inhibition at 20 uM after 72 hrs by SRB assay relative to control. The following applies: A549, 72 h, read-out: GI. Type of assay: functional.
Assay [3] relates to HL-60. Kind of assay: Cytotoxicity against human HL60 cells assessed as growth inhibition after 72 hrs by MTT assay. The following applies: HL-60, 72 h. The format is functional, cell-based.
The subject of assay [4] is A549. The experiment in a line: Cytotoxicity against human A549 cells assessed as growth inhibition after 72 hrs by SRB assay. The following applies: A549, 72 h. Type of assay: functional, cell-based.

With `COC(=O)[C@]1(C)CCCC2=C1CC[C@@H](C)[C@]2(C)CCC1=CC(=O)O[C@H]1O`, the inhibition of growth at 20 µM in the assay on HL-60 [1] and with A549 [2] was > 50% in each case. Moreover, the IC50 in the assay on HL-60 [3] came out at 11.8 µM; in the assay on A549 [4], 5.2 µM.

Regarding `COC(=O)[C@@]1(C)CC(=O)C2=C(c3ccoc3)C[C@]3(C)C2=C1CC[C@H]3C`, the inhibition of growth at 20 µM in the assay on HL-60 [1] and in the assay with A549 [2] was > 50% throughout. In addition, the IC50 in the assay with HL-60 [3] came to 10.5 µM; in the assay on A549 [4], 8.4 µM.
